Test results reported in patent publication US9776972B2, “Pyrazole derivatives as arginine methyltransferase inhibitors and uses thereof” (priority 2013, dated 2017).

Biological target: human PRMT3 (Homo sapiens, UniProt O60678)
Test: PRMT3 Biochemical Assay (3H-SAM Flashplate, peptide substrate)
Conditions: single experiment or average of multiple experiments

Sequence of human PRMT3 (O60678 with tags, fused parts or gaps): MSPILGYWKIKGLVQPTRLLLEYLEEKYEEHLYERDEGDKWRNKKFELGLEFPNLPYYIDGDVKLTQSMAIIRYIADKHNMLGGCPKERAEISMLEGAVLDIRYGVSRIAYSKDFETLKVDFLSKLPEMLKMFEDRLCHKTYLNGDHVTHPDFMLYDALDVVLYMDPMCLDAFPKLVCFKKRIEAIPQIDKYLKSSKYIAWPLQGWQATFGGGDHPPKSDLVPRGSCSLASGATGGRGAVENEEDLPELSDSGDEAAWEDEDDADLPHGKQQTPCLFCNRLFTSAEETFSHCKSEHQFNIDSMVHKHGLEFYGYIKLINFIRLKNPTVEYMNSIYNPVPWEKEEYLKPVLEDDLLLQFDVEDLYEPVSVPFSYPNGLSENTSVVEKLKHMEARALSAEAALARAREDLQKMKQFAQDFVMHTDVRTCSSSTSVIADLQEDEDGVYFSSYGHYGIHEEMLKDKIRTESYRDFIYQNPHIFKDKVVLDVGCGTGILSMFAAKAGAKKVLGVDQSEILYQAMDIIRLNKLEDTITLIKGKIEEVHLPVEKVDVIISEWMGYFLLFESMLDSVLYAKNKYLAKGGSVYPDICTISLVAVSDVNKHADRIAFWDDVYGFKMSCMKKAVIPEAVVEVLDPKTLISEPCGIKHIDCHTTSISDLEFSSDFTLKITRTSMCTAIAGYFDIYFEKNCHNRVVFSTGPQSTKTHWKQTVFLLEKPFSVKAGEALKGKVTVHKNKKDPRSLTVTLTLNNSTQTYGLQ

Row | SMILES | IC50 [µM]
1 | CN(CCN)Cc1c[nH]nc1-c1ccc(F)cc1 [Compound 1] | 2.65
2 | CN(CCN)Cc1cn(C)nc1-c1ccc(F)cc1 [Compound 3] | 25.5
3 | CCN(CCNC)Cc1c[nH]nc1-c1ccc(F)cc1 [Compound 9] | 3.16
4 | CNCCN(C)Cc1cnn(C)c1-c1ccc(F)cc1 [Compound 10] | 13.4
5 | CNCCN(C)Cc1cnn(CC2CCOCC2)c1-c1ccc(F)cc1 [Compound 12] | > 50
6 | CNCCN(C)Cc1c[nH]nc1-c1cccc(N)c1 [Compound 32] | 2.76
7 | CNCCN(C)Cc1c[nH]nc1-c1cccc(NC(C)=O)c1 [Compound 42] | 2.55
8 | CNCCN(C)Cc1c[nH]nc1-c1cccc(C(C)=O)c1 [Compound 44] | 3.44
9 | CNCCN(C)Cc1c[nH]nc1-c1ccc(-c2ccccc2)cc1 [Compound 47] | 0.53
10 | CC(C)Oc1ccc(-c2n[nH]cc2CN(C)CCN)cc1 [Compound 67] | 4.58
11 | CN(CCN)Cc1cn(C2COC2)nc1-c1ccc(F)cc1 [Compound 77] | 6.29
12 | CN(CCN)Cc1c[nH]nc1-c1ccc(N2CCNCC2)cc1 [Compound 82] | 1.59
13 | CN(CCN)Cc1c[nH]nc1-c1ccc(Cl)cc1Cl [Compound 86] | 5.82
14 | Cc1ccc(-c2n[nH]cc2CN(C)CCN)c(C)c1 [Compound 88] | 8.08
15 | CN(CCN)Cc1c[nH]nc1-c1ccc(F)cc1Cl [Compound 89] | 9.56
16 | Cc1ccc(-c2n[nH]cc2CN(C)CCN)c(Cl)c1 [Compound 90] | 6.97
17 | CN(CCN)Cc1c[nH]nc1-c1ccc(C(F)(F)F)cc1 [Compound 92] | 3.14
18 | CN(CCN)Cc1c[nH]nc1-c1ccc(OC(F)(F)F)cc1 [Compound 93] | 3.61
19 | CN(CCN)Cc1c[nH]nc1-c1ccc(OC(F)F)cc1 [Compound 94] | 5.37
20 | CN(CCN)Cc1c[nH]nc1-c1ccc(Cl)cc1 [Compound 95] | 2.39
21 | CC(C)Oc1ccc(-c2n[nH]cc2CN(C)CCN)cc1Cl [Compound 168] | 3.91
